Laboratory results reported in ChEMBL document CHEMBL1201862, “PubChem BioAssay data set” (2004).
Active and inactive are the calls of the source.

Assays:
[1] = inhibitors of intracellular T. cruzi replication, confirmation, NIH3T3 host cells, beta-gal luminescence (AID 2044); type: functional, cell-based;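 also: intracellular parasites grown in NIH/3T3 mouse fibroblasts as host cells; luminescent beta-galactosidase reporter signal from transgenic T. cruzi replicating inside host cells; inhibitors lower the luminescence signal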
[2] = cytotoxicity toward NIH3T3 fibroblasts, dose response, counter-screen, cell-based, ATP luminescence, mouse fibroblasts (AID 2010); type: functional;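 also: cells exposed to compound for about 90 hours before reading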
CAAX prenyl protease 2 = CAAX prenyl protease 2 (Saccharomyces cerevisiae S288c, UniProt Q03530); type: biochemical
CAAX prenyl protease 2, sequence (Q03530 whole entry): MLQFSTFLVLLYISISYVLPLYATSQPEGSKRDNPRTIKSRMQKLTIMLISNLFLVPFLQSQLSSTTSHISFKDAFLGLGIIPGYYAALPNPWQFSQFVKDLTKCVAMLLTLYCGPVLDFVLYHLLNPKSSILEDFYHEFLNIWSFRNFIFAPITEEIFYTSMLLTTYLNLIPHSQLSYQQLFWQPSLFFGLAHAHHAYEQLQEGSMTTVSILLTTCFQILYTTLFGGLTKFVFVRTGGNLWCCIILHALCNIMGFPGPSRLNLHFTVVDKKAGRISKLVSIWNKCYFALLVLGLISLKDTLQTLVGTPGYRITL

Trypsin = Trypsin (Sus scrofa, UniProt P00761); assay: porcine trypsin inhibitors, dose response, selectivity assay for Rce1 protease inhibitor project, biochemical, quenched peptide fluorescence, cherry-pick (AID 488789)
Trypsin, sequence (P00761 whole entry): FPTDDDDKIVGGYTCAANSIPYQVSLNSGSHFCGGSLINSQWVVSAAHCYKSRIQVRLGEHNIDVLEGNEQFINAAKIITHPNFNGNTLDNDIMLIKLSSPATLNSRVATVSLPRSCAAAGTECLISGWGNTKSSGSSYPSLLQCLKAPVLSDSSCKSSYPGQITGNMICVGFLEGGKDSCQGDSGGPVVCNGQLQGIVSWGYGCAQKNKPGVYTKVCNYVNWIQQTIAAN

[3] = target: T1, Tyrosine-protein phosphatase non-receptor type 7 (Homo sapiens, UniProt P35236); assay: SAR analysis of chemical inhibitors of HePTP using a Fluorescent assay - Set 2. [Related pubchem assays (depositor defined):AID1059, AID1077, AID1661, AID2085, AID521]; type: functional
T1 sequence (P35236 whole entry): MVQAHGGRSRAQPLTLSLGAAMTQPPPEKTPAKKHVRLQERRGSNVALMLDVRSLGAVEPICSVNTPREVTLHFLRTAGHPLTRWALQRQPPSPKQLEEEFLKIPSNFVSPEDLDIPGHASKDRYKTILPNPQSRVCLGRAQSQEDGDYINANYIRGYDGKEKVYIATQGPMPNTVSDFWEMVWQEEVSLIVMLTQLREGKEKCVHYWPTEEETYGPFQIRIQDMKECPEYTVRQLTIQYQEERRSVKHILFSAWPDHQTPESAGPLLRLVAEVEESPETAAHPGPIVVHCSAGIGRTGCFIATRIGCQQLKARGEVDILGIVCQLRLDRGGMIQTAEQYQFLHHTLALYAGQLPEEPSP

[4] = target: Dual specificity protein phosphatase 3 (Homo sapiens, UniProt P51452); assay: SAR VHR1 Fluorescent Assay for In Vitro dose response studies Set 2. [Related pubchem assays (depositor defined):AID1654, AID1661, AID1878]; type: functional
[5] = HepG2 cell cytotoxicity, dose response, cytotoxicity control for non-replicating M. tuberculosis project (AID 489018); type: functional; conditions: Mycobacterium tuberculosis
cells = type: functional
[6] = Vero E6 cell cytotoxicity, dose response, cytotoxicity control for non-replicating M. tuberculosis project, secondary assay (AID 492998); type: functional, VeroE6; conditions: Vero C1008
[7] = target: T2, Short transient receptor potential channel 4 (Mus musculus, UniProt Q9QUQ5); assay: mouse TRPC4 channel inhibitors, dose response, cell-based, HEK293 TRPC4/mu-opioid, Fluo-4 calcium (AID 434942); type: functional;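 also: potency of inhibitors blocking the TRPC4 calcium response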
T2 sequence (Q9QUQ5 whole entry): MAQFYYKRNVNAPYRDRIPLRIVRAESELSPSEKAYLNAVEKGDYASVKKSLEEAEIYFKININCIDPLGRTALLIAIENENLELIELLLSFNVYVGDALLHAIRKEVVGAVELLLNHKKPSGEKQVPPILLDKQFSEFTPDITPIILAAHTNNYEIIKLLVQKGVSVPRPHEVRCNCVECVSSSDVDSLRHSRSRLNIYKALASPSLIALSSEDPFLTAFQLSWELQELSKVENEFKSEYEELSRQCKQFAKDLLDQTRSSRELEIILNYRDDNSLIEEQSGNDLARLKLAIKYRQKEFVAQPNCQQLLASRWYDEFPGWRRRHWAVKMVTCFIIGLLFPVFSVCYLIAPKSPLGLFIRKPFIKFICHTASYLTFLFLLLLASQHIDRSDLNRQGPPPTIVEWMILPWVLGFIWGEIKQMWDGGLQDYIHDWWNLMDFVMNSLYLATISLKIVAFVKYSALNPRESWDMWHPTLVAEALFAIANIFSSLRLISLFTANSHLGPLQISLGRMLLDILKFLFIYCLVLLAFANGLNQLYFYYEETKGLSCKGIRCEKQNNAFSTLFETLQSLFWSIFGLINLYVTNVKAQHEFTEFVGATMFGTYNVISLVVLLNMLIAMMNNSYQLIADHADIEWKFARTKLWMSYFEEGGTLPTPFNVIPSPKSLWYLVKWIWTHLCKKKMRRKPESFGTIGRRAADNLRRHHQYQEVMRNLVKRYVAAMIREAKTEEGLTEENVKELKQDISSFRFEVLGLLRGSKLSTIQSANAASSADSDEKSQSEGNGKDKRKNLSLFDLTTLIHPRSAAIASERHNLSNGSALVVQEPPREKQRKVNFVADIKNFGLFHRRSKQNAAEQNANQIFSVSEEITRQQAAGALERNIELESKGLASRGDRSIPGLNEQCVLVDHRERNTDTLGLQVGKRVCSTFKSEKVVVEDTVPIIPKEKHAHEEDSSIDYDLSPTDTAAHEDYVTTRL

[8] = THP-1 cell cytotoxicity, dose response, cytotoxicity control for non-replicating M. tuberculosis project (AID 489025); type: functional
Coagulation factor XII = target: T3, Coagulation factor XII (Homo sapiens, UniProt P00748); type: functional;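 also: activated factor XIIa alpha cleaving a fluorogenic AMC peptide substrate; inhibitor potency from loss of enzyme activity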
T3 sequence (P00748 whole entry): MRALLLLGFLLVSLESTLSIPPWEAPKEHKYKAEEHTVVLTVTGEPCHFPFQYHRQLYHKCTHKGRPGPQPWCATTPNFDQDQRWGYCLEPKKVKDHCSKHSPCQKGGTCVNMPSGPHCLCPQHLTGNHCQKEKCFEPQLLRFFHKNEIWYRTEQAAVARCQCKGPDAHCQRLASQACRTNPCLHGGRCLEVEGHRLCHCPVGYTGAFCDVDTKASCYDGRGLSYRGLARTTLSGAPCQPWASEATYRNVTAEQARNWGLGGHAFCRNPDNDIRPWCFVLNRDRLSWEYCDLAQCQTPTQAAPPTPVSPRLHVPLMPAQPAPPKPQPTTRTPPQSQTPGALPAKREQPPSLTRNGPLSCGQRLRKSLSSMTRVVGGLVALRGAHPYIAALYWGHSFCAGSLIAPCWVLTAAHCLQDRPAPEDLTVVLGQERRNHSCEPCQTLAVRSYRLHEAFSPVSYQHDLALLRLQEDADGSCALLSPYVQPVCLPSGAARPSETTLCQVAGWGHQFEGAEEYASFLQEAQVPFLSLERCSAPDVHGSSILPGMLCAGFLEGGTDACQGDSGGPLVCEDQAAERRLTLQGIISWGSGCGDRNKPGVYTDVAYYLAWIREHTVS

[9] = target: G-protein coupled receptor 55 (Homo sapiens, UniProt Q9Y2T6); assay: GPR55 antagonists blocking LPI-driven arrestin recruitment, primary screen, imaging, U2OS, beta-arrestin-GFP, LPI agonist (AID 2013); type: functional;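 also: antagonist potency measured as reduced agonist-driven arrestin aggregation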
G-protein coupled receptor 55, sequence (Q9Y2T6 whole entry): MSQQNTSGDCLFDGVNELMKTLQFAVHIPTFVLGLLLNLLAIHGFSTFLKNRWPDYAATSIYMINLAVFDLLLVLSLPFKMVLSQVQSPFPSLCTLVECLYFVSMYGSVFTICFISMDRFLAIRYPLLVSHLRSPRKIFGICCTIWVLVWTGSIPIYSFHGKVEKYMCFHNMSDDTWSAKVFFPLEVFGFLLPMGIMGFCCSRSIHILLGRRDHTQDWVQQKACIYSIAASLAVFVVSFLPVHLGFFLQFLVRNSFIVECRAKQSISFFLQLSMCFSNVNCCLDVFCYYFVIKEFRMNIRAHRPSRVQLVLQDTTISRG

[10] = target: Peroxisome proliferator-activated receptor gamma/Nuclear receptor coactivator 1 (Homo sapiens, UniProt P37231); assay: TR-FRET dose response biochemical High Throughput Screening assay for agonists of the steroid receptor coactivator 1 (SRC-1) recruitment by the peroxisome proliferator-activated receptor gamma (PPAR gamma): non-selective agonists. [Related pubchem assays (depositor defined):AID1300, AID1808, AID504735, AID631]; type: protein assay
Peroxisome proliferator-activated receptor gamma/Nuclear receptor coactivator 1, sequence (P37231 whole entry): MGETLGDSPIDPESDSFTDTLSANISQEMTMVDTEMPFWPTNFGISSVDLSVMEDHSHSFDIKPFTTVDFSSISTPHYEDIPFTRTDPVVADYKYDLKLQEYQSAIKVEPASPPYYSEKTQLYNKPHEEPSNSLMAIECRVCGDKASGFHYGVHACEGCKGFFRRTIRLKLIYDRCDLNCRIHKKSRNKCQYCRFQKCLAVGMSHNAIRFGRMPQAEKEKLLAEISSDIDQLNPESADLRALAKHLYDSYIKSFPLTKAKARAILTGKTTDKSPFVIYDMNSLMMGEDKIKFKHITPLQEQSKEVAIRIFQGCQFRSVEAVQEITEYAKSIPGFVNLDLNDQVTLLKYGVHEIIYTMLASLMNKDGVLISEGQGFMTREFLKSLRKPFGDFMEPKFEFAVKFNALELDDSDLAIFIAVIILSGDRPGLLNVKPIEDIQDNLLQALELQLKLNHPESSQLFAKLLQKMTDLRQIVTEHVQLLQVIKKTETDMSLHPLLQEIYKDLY
Peroxisome proliferator-activated receptor gamma/Nuclear receptor coactivator 1, sequence (Q15788 whole entry, further chain): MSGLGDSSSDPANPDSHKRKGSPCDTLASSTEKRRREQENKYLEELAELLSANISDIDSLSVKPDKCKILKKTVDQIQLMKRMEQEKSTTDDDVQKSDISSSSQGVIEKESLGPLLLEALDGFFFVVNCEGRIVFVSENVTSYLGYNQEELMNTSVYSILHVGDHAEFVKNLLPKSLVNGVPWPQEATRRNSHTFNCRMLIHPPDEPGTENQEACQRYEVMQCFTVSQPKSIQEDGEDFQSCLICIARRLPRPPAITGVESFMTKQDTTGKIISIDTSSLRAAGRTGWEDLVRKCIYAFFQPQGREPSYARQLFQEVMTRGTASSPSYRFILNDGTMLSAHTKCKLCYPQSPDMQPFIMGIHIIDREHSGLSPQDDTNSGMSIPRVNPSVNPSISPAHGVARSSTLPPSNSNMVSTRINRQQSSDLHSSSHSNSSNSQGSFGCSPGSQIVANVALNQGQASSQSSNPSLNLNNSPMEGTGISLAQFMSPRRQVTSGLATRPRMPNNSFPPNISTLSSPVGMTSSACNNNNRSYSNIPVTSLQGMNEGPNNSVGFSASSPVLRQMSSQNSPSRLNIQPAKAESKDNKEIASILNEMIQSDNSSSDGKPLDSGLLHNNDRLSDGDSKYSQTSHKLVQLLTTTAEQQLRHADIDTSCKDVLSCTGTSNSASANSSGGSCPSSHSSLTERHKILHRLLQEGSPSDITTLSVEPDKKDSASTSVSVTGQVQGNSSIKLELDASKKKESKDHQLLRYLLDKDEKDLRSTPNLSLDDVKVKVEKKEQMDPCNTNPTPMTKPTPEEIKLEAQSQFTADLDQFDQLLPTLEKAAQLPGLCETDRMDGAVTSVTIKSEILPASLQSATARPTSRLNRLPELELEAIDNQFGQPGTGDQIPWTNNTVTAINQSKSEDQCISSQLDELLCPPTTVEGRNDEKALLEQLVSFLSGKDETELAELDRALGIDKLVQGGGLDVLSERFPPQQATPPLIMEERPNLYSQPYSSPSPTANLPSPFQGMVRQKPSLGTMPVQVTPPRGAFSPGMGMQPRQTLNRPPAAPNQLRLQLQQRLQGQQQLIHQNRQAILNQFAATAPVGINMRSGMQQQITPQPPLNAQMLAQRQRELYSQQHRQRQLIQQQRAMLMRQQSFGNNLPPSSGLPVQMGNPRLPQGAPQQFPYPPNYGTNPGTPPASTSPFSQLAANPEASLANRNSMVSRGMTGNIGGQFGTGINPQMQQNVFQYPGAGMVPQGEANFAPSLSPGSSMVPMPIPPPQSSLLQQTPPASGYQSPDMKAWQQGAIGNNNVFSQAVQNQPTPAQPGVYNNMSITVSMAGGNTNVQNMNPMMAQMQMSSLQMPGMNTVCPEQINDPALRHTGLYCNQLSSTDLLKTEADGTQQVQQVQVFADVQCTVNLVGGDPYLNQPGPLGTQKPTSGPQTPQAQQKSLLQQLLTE

Cytochrome P450 2C19 = Cytochrome P450 2C19 (Homo sapiens, UniProt P33261); assay: Cytochrome panel assay with activity outcomes. Panel member name: p450-cyp2c19 Compounds with AC50 equal or less than 10 uM are considered active; type: functional; conditions: read-out: AC50
Cytochrome P450 2C19, sequence (P33261 whole entry): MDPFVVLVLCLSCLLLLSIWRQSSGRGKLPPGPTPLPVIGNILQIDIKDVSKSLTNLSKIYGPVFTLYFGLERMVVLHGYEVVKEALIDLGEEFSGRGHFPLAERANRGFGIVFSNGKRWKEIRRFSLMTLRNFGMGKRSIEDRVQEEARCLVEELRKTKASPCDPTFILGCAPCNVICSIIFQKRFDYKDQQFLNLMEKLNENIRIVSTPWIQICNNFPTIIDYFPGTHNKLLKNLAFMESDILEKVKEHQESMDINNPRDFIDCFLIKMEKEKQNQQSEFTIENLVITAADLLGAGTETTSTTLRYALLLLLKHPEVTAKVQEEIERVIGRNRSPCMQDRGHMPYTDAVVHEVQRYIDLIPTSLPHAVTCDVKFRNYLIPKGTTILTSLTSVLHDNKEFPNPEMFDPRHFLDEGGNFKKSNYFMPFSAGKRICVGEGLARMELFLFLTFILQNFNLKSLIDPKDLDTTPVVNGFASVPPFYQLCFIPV

[11] = target: Peroxisome proliferator-activated receptor gamma/Nuclear receptor coactivator 3 (Homo sapiens, UniProt P37231); assay: TR-FRET dose response biochemical High Throughput Screening assay for agonists of the steroid receptor coactivator 3 (SRC-3) recruitment by the peroxisome proliferator-activated receptor gamma (PPAR gamma): non-selective agonists. [Related pubchem assays: 1301 (Confirmation screen.), 1048 (Primary screen.)]; type: functional
[12] = target: Peroxisome proliferator-activated receptor gamma/Nuclear receptor coactivator 2 (Homo sapiens, UniProt P37231); assay: TR-FRET dose response biochemical High Throughput Screening assay for agonists of the steroid receptor coactivator 2 (SRC-2) recruitment by the peroxisome proliferator-activated receptor gamma (PPAR gamma): non-selective agonists. [Related pubchem assays: 1297, 1032 ]; type: functional
[13] = target: DNA dC->dU-editing enzyme APOBEC-3A (Homo sapiens, UniProt P31941); assay: Dose Response confirmation of small molecule APOBEC3A DNA Deaminase Inhibitors via a fluorescence-based single-stranded DNA deaminase assay. [Related pubchem assays (depositor defined):AID493011, AID493024]; type: functional
DNA dC->dU-editing enzyme APOBEC-3A, sequence (P31941 whole entry, the tested form may be a part): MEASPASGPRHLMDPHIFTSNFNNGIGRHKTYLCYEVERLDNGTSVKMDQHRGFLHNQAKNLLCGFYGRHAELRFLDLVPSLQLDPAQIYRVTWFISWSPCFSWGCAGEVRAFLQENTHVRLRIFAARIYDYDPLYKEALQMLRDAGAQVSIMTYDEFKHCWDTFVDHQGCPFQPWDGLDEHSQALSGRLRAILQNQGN

[14] = target: T4, Carboxy-terminal domain RNA polymerase II polypeptide A small phosphatase 1 (Homo sapiens, UniProt Q9GZU7); assay: inhibitors of CTDSP1, concentration-response testing, biochemical assay, absorbance-based, actives from ultra-high-throughput screening (AID 540297); type: functional
T4 sequence (Q9GZU7 whole entry): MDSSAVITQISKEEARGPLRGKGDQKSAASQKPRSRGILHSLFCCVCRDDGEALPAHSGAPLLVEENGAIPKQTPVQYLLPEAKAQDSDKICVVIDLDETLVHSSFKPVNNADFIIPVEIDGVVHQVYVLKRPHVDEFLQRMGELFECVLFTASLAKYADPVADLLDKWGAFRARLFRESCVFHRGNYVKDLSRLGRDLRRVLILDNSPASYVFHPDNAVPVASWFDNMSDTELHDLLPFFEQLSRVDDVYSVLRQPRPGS

[15] = target: DNA dC->dU-editing enzyme APOBEC-3G (Homo sapiens, UniProt Q9HC16); type: functional;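 also: Dose-response counterscreen measuring inhibition of APOBEC3G DNA deaminase activity, run while confirming APOBEC3A inhibitors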
DNA dC->dU-editing enzyme APOBEC-3G, sequence (Q9HC16 whole entry): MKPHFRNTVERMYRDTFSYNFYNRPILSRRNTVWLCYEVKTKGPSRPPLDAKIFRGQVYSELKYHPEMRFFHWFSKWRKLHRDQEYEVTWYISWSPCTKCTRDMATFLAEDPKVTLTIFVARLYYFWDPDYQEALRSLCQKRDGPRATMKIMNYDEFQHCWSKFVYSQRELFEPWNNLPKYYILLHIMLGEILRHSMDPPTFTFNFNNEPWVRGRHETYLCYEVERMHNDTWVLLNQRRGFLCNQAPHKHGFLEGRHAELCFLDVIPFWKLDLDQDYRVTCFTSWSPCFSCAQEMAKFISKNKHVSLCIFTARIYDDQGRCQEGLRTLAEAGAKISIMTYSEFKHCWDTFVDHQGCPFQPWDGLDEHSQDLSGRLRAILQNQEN

[16] = target: T5, E3 ubiquitin-protein ligase XIAP (Homo sapiens, UniProt P98170); assay: Counter Screen using XIAP-Bir3 for Chemical Antagonists of Bir1/2 domains of IAP-family anti-apoptotic proteins. [Related pubchem assays (depositor defined):AID1018, AID1449, AID1514, AID1638, AID1749, AID1750, AID488957, AID488963]
T5 sequence (P98170 whole entry): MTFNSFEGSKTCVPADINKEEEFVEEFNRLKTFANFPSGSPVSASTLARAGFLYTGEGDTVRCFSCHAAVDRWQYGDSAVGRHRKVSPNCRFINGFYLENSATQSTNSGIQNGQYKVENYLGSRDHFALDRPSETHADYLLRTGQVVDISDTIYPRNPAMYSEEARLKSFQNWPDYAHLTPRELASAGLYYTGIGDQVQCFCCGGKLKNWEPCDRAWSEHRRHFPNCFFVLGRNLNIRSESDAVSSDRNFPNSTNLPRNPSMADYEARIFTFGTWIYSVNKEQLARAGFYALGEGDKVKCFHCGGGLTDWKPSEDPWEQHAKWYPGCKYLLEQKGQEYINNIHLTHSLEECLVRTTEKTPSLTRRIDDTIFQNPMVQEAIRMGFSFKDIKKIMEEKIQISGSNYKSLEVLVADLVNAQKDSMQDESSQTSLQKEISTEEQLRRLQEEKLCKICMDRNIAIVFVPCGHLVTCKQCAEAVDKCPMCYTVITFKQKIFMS

[17] = target: T5, E3 ubiquitin-protein ligase XIAP; assay: XIAP antagonists, biochemical, IAP family, fluorescence polarization (AID 1018); type: functional
[18] = target: T1, Tyrosine-protein phosphatase non-receptor type 7; assay: redox-dependent HePTP inhibition, mechanism study, biochemical, fluorescence (AID 2068); type: functional
Cytochrome P450 2C9 = Cytochrome P450 2C9 (Homo sapiens, UniProt P11712)
Cytochrome P450 2C9, sequence (P11712 whole entry): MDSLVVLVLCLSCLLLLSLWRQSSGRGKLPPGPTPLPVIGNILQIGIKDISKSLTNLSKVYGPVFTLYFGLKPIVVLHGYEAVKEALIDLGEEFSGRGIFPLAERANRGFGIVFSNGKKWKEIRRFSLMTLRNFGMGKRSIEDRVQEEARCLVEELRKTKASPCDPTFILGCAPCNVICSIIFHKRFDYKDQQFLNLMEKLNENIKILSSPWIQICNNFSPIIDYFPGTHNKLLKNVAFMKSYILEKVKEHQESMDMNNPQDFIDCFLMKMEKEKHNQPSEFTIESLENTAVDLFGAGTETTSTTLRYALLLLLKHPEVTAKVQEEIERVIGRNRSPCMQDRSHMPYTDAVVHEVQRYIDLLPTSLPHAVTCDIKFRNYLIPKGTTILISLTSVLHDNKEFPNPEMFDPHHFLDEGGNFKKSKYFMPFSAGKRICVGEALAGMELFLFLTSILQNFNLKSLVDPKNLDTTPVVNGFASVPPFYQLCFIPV

[19] = target: T2, Short transient receptor potential channel 4; assay: mouse TRPC4 channel activators, dose response, cell-based, HEK293 TRPC4/mu-opioid, Fluo-4 calcium (AID 434937); type: functional
[20] = NIH-3T3 fibroblast cytotoxicity, dose response, cytotoxicity control, cell-based, fluorescence, Alamar Blue, secondary assay (AID 2327); type: functional;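 also: NIH-3T3 mouse fibroblasts cultured with fluconazole at 8 µg/mL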
[21] = Luminescence Cell-Based Dose Response HTS to Identify Activators of Luciferase Translation or Activity in H4 […] Cells. [Related pubchem assays: 1829 (Project Summary), 1814 (Primary HTS)]; type: functional
H4 = assay: Luminescence Cell-Based Dose Response HTS to Identify Activators of 5'UTR Stem-Loop Driven Prion Protein mRNA Translation in H4 Neuroglioblastoma Cells. [Related pubchem assays: 1829 (Project Summary), 1814 (Primary HTS)]; type: functional; conditions: Homo sapiens
[22] = Luminescence Cell-Based Dose Confirmation HTS to Identify Activators of 5'UTR Stem-Loop Driven Alpha-Synuclein mRNA Translation in H4 Neuroglioblastoma Cells. [Related pubchem assays: 1829 (Project Summary), 1814 (Primary HTS)]; type: functional
Cytochrome P450 3A4 = Cytochrome P450 3A4 (Homo sapiens, UniProt P08684);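 also: CYP3A4 tested as one member of a cytochrome P450 panel screen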

O=C(CSc1nc2ccccc2s1)N1N=C(c2cccs2)CC1c1ccc(F)cc1 (stereo not given)
EC50 [1]: 1.06 µM (active) | EC50 [2]: > 60 µM (not active) | AC50 (CAAX prenyl protease 2): 12.1 µM (active) | AC50 (Trypsin): 24.5 µM (active)

COc1ccc(OC)c(C(=S)NCc2ccc(C(F)(F)F)cc2)c1
IC50 [3]: 38.4 µM (active) | IC50 [4]: 48.4 µM (active)

CN1CCN(c2ccc(NC(=O)c3ccc(-c4ccc(Cl)cc4)o3)cc2)CC1
CC50 [5]: 8.12 µM (active) | IC50 (cells): 3.04 µM (active) | CC50 [6]: 17.2 µM (active) | EC50 [7]: 66.7 nM (active) | CC50 [8]: 17.6 µM (active)

CCn1nc(C)c(CNC(=O)c2cc(COc3ccc(F)cc3Cl)on2)c1C
IC50 (Coagulation factor XII): > 50 µM (inactive)

C#CCOc1c(Br)cc(/C=N\NC(=O)CN2CCOCC2)cc1OCC
IC50 [9]: 3.59 µM (active)

Cn1c(=O)cc(SCC(=O)NCCCN2CCOCC2)c2ccc(Cl)cc21
EC50 [10]: > 79.4 µM (inactive) | AC50 (Cytochrome P450 2C19): 10 µM (inconclusive) | EC50 [11]: > 79.4 µM (not active) | EC50 [12]: > 79.4 µM (not active)

Cc1cc(-c2ccccc2)nc2c(Br)c(C(=O)O)nn12
IC50 [13]: 25.2 µM (active) | IC50 [14]: 2.44 µM (active) | IC50 [15]: 37.7 µM (active)

Cc1ccn(C)c(=N)c1
IC50 [13]: 7.71 µM (active) | IC50 [15]: 7.58 µM (active)

COc1ccc(C(=O)N(CN2CCCC2=O)c2ccccc2OC)cc1OC
IC50 [16]: > 100 µM (inactive) | IC50 [17]: > 100 µM (not active)

CCCCOc1ccccc1NC(=O)c1scc2c1OCCO2
IC50 [9]: 3.01 µM (active)

COc1ccc(-c2ccc3oc(-c4ccc(OC)cc4)c(-c4ccc(OC)cc4)c3c2)cc1
AC50 (CAAX prenyl protease 2): 18 µM (active)

O=C(Nc1ccccc1)Nc1ccc2nc(-c3ccco3)c(-c3ccco3)nc2c1
IC50 [18]: 575 nM (active)

Clc1ccccc1CN1CCN(CCCc2ccccc2)CC1
IC50 (Coagulation factor XII): > 50 µM (inactive)

Cc1cc(C)n(-c2nc(SCCN(C)C)c3c4c(sc3n2)CCCC4)n1
AC50 (Cytochrome P450 2C9): 15.8 µM (inconclusive) | AC50 (Cytochrome P450 2C19): 31.6 µM (inconclusive) | EC50 [19]: 1.88 µM (active) | EC50 [20]: 56 µM (active) | CC50 [5]: 19.4 µM (active) | IC50 (cells): 9.58 µM (active) | CC50 [6]: 6.93 µM (active) | EC50 [21]: > 120 µM (not active) | EC50 (H4): > 120 µM (not active) | EC50 [22]: > 120 µM (not active) | AC50 (Cytochrome P450 3A4): 17.8 µM (inconclusive) | CC50 [8]: 13.5 µM (active)
